Source: patent US11185554B2 (priority 2016, dated 2021)

Columns and labels:
EBOV = system: EBOV; set-up: species or system C57BL/6J mice; conditions: mouse, in vivo
[1] = system: neutrophils and T cells in the peripheral blood; set-up: species or system C57BL/6J mice; conditions: mouse, in vivo
[2] = system: cytokines, chemokines in the peripheral blood; set-up: species or system C57BL/6J mice; conditions: mouse, in vivo
free radicals (ROS/RNS) = system: free radicals (ROS/RNS); set-up: species or system C57BL/6J mice; conditions: mouse, in vivo
ebola virus = system: ebola virus; set-up: species or system C57BL/6J mice; conditions: mouse, in vivo
influenza = conditions: mouse, in vivo; cited from earlier work

CCCCCC/C=C\CCCCCCCCCC(=O)N[C@H]1[C@H](OC[C@H]2O[C@H](OP(=O)(O)O)[C@H](NC(=O)CC(=O)CCCCCCCCCCC)[C@@H](OCCCCCCCCCC)[C@@H]2O)O[C@H](COC)[C@@H](OP(=O)(O)O)[C@@H]1OCC[C@@H](CCCCCCC)OC [eritoran, α-D-Glucopyranose, 3-O-decyl-2-deoxy-6-O-[2-deoxy-3-O-[(3R)-3-methoxydecyl)-6-O-methyl-2-[[(-11Z)-1-oxo-11-octadecenyl)amino]-4-O-phosphono-3-D-glucopyranosyl]-2-[(1,3-dioxotetradecyl)amino]-1-(dihydrogen phosphate)]
reduction of viremia versus placebo (EBOV): two-logs
viremia (quantitative RT-PCR) (EBOV): 10^5 genome equivalents per mL
B-cells, NK-cells and monocytes populations [1]: no effect
absolute count of CD3+, CD3+CD4+ and CD3+CD8+ T cells [1]: further reduced
expansion of the neutrophil population (absolute counts) [1]: blocked expansion
granulocytes, absolute count [1]: 2,786 cells/μl
increase of percentages of CD4+ T cells positive for IL-4 [1]: 3.8 fold
increase of percentages of CD4 T cells positive for CD69 [1]: 2.8 fold
levels of IFNγ-secreting CD4+ T cells [1]: dramatically reduced
levels of IFNγ-secreting CD8+ T cells [1]: dramatically reduced
levels of IL-17A-secreting CD4+ T cells [1]: dramatically reduced
percentages of CD11b+Ly6G/Ly6C+ neutrophils in gated granulocytes, placebo versus eritoran [1]: no difference
percentages of neutrophils expressing activation marker CD64 [1]: significantly increased
percentages of neutrophils expressing activation marker CD69 [1]: significantly increased
ratio of CD11b+Ly6G/Ly6C+ neutrophils to CD3+ T-lymphocytes [1]: 11.05
ratio of CD11b+Ly6G/Ly6C+ neutrophils to total lymphocytes [1]: 2.15
decrease of serum levels of leukemia inhibitory factor (LIF) [2]: 10.3 fold
increase in the production of KC [2]: 10.0 fold
increase of levels of G-CSF [2]: 7.0 fold
increase of levels of M-CSF [2]: 58%
reduction of serum IL-7 levels [2]: 41%
serum IL-6 level [2]: reduced
serum IL-9 level [2]: reduced
serum IL-10 level [2]: reduced
serum IL-13 level [2]: reduced
serum MIG level [2]: significantly decreased
serum MIP-1α level [2]: significantly decreased
serum MIP-1β level [2]: significantly decreased
serum MIP-2 level [2]: significantly decreased
serum RANTES level [2]: significantly decreased
serum TNFα level [2]: reduced
serum IP-10 level ([2]; ip): significantly decreased
reduction of free radicals (ROS/RNS) (free radicals (ROS/RNS)): 23%
protection against ebola virus challenge (ebola virus): does not protect
protection from lethal influenza challenge (influenza): protected
